From patent US20080200448A1, “New Pyridine Analogues VIII 518” (ASTRAZENECA AB, priority 2007, published 2008) come the findings set out here.

The assay has as its target T1, P2Y12 receptor (Homo sapiens, UniProt Q9H244).
T1 construct: expressed in transfected cells; host or cells: CHO cells (membrane preparation)
Description: Functional inhibition of 2-Me-S-ADP induced P2Y12 signalling (35S-GTPγS binding, cell membranes). Format: biochemical. Particulars: 35S-GTPγS assay, membranes, EC80 concentration of 2-methyl-thio-adenosine diphosphate, 30° C. for 45 min; read-out: GTPγS (IC50 μM). As for the experimental part: Functional inhibition of- the P2Y12 receptor can be measured by in vitro assays using cell membranes from P2Y12 transfected CHO-cells, the methodology is indicated below.
Functional inhibition of 2-Me-S-ADP induced P2Y12 signalling: 5 μg of membranes were diluted in 200 μl of 200 mM NaCl, 1 mM MgCl2, 50 mM HEPES (pH 7.4), 0.01% BSA, 30 μg/ml saponin and 10 μM GDP. To this was added an EC80 concentration of agonist (2-methyl-thio-adenosine diphosphate), the required concentration of test compound and 0.1 μCi ^35S-GTPγS. The reaction was allowed to proceed at 30° C. for 45 min. Samples were then transferred on to GF/B filters using a cell harvester and washed with wash buffer (50 mM Tris (pH 7.4), 5 mM MgCl2, 50 mM NaCl). Filters were then covered with scintilant and counted for the amount of ^35S-GTPγS retained by the filter. Maximum activity was that determined in the presence of the agonist and minimum activity in the absence of the agonist following subtraction of the value determined for non-specific activity. The effect of compounds at various concentrations was plotted according to the equation
y=A+((B−A)/(1+((C/x)̂D)))
and IC50 estimated where A is the bottom plateau of the curve i.e. the final minimum y value B is the top of the plateau of the curve i.e. the final maximum y value C is the x value at the middle of the curve. This represents the log EC50 value when A+B=100 D is the slope factor. x is the original known x values. Y is the original known y values.
(Binding of GTPγS marks nucleotide exchange on a G protein.)

T1 sequence (Q9H244 whole entry): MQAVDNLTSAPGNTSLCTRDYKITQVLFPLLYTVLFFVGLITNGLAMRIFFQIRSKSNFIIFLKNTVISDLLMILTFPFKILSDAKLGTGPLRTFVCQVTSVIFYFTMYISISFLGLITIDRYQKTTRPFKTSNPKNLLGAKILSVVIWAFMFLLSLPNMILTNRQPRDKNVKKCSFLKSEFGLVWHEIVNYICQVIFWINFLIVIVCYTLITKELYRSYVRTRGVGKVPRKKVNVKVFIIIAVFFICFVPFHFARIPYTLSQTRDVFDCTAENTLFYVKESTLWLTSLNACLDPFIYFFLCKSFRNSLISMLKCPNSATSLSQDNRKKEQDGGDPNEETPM

The IC50 is the midpoint of a concentration-inhibition curve. Turning to `CCOC(=O)c1cc(C#N)c(N2CC(C(=O)NS(=O)(=O)Cc3ccccc3)C2)nc1CSCC` [Example 30, Ethyl 6-{3-[(benzylsulfonyl)carbamoyl]azetidin-1-yl}-5-cyano-2-[(ethylthio)methyl]nicotinate], the IC50 is 0.106 µM.
Then `CCOC(=O)c1cc(C#N)c(N2CC(C(=O)NS(=O)(=O)Cc3ccccc3)C2)nc1CSCCO` [Example 31, Ethyl 6-{3-[(benzylsulfonyl)carbamoyl]azetidin-1-yl}-5-cyano-2-{[(2-hydroxyethyl)thio]methyl}nicotinate], with 0.066 µM; and `CCOC(=O)c1cc(C#N)c(N2CC(C(=O)NS(=O)(=O)Cc3ccccc3)C2)nc1CSCCNC(C)=O` [Example 32, Ethyl 2-{[(2-acetamidoethyl)thio]methyl}-6-{3-[(benzylsulfonyl)carbamoyl]azetidin-1-yl}-5-cyanonicotinate], with 0.081 µM.
The result for `CCOC(=O)c1cc(C#N)c(N2CCC(C(=O)NS(=O)(=O)Cc3ccccc3)CC2)nc1CN1CCCC1=O` [Example 33, Ethyl 6-{4-[(benzylsulfonyl)carbamoyl]piperidin-1-yl}-5-cyano-2-[(2-oxopyrrolidin-1-yl)methyl]nicotinate] reads 0.0097 µM.
The result for `CC(C)OC(=O)c1cc(C#N)c(N2CCC(C(=O)NS(=O)(=O)Cc3ccccc3)CC2)nc1CN1CCCC1=O` [Example 34, Isopropyl 6-{4-[(benzylsulfonyl)carbamoyl]piperidin-1-yl}-5-cyano-2-[(2-oxopyrrolidin-1-yl)methyl]nicotinate] reads 0.033 µM.
`CCOC(=O)c1cc(C#N)c(N2CCC(C(=O)NS(=O)(=O)Cc3ccc(C(F)(F)F)cc3)CC2)nc1CN1CCCC1=O` [Example 35, Ethyl 5-cyano-2-[(2-oxopyrrolidin-1-yl)methyl]-6-[4-({[4-(trifluoromethyl)benzyl]sulfonyl}carbamoyl)piperidin-1-yl]nicotinate]: the IC50 amounted to 0.0097 µM.
Then `CCOC(=O)c1cc(C#N)c(N2CCC(C(=O)NS(=O)(=O)CC3CCCC3)CC2)nc1CN1CCCC1=O` [Example 36, Ethyl 5-cyano-6-(4-{[(cyclopentylmethyl)sulfonyl]carbamoyl}piperidin-1-yl)-2-[(2-oxopyrrolidin-1-yl)methyl]nicotinate], with 0.017 µM; and `CCOC(=O)c1cc(C#N)c(N2CCC(C(=O)NS(=O)(=O)CC3CCC(C)CC3)CC2)nc1CN1CCCC1=O` (stereo not drawn) [Example 37, Ethyl 5-cyano-6-[4-({[(4-methylcyclohexyl)methyl]sulfonyl}carbamoyl)piperidin-1-yl]-2-[(2-oxopyrrolidin-1-yl)methyl]nicotinate], with 0.03 µM.
Then `CCOC(=O)c1cc(C#N)c(N2CCC(C(=O)NS(=O)(=O)Cc3ccc(F)cc3F)CC2)nc1CN1CCCC1=O` [Example 38, Ethyl 5-cyano-6-(4-{[(2,4-difluorobenzyl)sulfonyl]carbamoyl}piperidin-1-yl)-2-[(2-oxopyrrolidin-1-yl)methyl]nicotinate], with 0.0033 µM.
The result for `CCOC(=O)c1cc(C#N)c(N2CCC(C(=O)NS(=O)(=O)Cc3ccc(Cl)cc3)CC2)nc1CN1CCCC1=O` [Example 39, Ethyl 6-(4-{[(4-chlorobenzyl)sulfonyl]carbamoyl}piperidin-1-yl)-5-cyano-2-[(2-oxopyrrolidin-1-yl)methyl]nicotinate] reads 0.011 µM; that for `CCOC(=O)c1cc(C#N)c(N2CCC(C(=O)NS(=O)(=O)Cc3ccc(F)cc3)CC2)nc1CN1CCCC1=O` [Example 40, Ethyl 5-cyano-6-(4-{[(4-fluorobenzyl)sulfonyl]carbamoyl}piperidin-1-yl)-2-[(2-oxopyrrolidin-1-yl)methyl]nicotinate], 0.025 µM.
On to `CCOC(=O)c1cc(C#N)c(N2CCC(C(=O)NS(=O)(=O)Cc3ccc(Cl)cc3Cl)CC2)nc1CN1CCCC1=O` [Example 41, Ethyl 5-cyano-6-(4-{[(2,4-dichlorobenzyl)sulfonyl]carbamoyl}piperidin-1-yl)-2-[(2-oxopyrrolidin-1-yl)methyl]nicotinate], for which the 50% inhibitory concentration (IC50) came to 0.016 µM.
The result for `CCOC(=O)c1cc(C#N)c(N2CCC(C(=O)NS(=O)(=O)Cc3ccc(C)cc3)CC2)nc1CN1CCCC1=O` [Example 42, Ethyl 5-cyano-6-(4-{[(4-methylbenzyl)sulfonyl]carbamoyl}piperidin-1-yl)-2-[(2-oxopyrrolidin-1-yl)methyl]nicotinate] reads 0.012 µM; that for `CCOC(=O)c1cc(C#N)c(N2CCC(C(=O)NS(=O)(=O)Cc3ccc(F)cc3Cl)CC2)nc1CN1CCCC1=O` [Example 43, Ethyl 6-(4-{[(2-chloro-4-fluorobenzyl)sulfonyl]carbamoyl}piperidin-1-yl)-5-cyano-2-[(2-oxopyrrolidin-1-yl)methyl]nicotinate], 0.018 µM.
The result for `CCOC(=O)c1cc(C#N)c(N2CCC(C(=O)NS(=O)(=O)Cc3ccc(Cl)cc3F)CC2)nc1CN1CCCC1=O` [Example 44, Ethyl 6-(4-{[(4-chloro-2-fluorobenzyl)sulfonyl]carbamoyl}piperidin-1-yl)-5-cyano-2-[(2-oxopyrrolidin-1-yl)methyl]nicotinate] reads 0.01 µM; that for `Cc1ccc(CS(=O)(=O)NC(=O)C2CCN(c3nc(CN4CCCC4=O)c(C(=O)OC(C)C)cc3C#N)CC2)cc1` [Example 45, Isopropyl 5-cyano-6-(4-{[(4-methylbenzyl)sulfonyl]carbamoyl}piperidin-1-yl)-2-[(2-oxopyrrolidin-1-yl)methyl]nicotinate], 0.019 µM.
Then `CC(C)OC(=O)c1cc(C#N)c(N2CCC(C(=O)NS(=O)(=O)Cc3ccc(F)cc3F)CC2)nc1CN1CCCC1=O` [Example 46, Isopropyl 5-cyano-6-(4-{[(2,4-difluorobenzyl)sulfonyl]carbamoyl}piperidin-1-yl)-2-[(2-oxopyrrolidin-1-yl)methyl]nicotinate], with 0.021 µM; and `CC(C)OC(=O)c1cc(C#N)c(N2CCC(C(=O)NS(=O)(=O)CC3CCCC3)CC2)nc1CN1CCCC1=O` [Example 47, Isopropyl 5-cyano-6-(4-{[(cyclopentylmethyl)sulfonyl]carbamoyl}piperidin-1-yl)-2-[(2-oxopyrrolidin-1-yl)methyl]nicotinate], with 0.065 µM.
For `CC(C)OC(=O)c1cc(C#N)c(N2CCC(C(=O)NS(=O)(=O)Cc3ccc(Cl)cc3)CC2)nc1CN1CCCC1=O` [Example 48, Isopropyl 6-(4-{[(4-chlorobenzyl)sulfonyl]carbamoyl}piperidin-1-yl)-5-cyano-2-[(2-oxopyrrolidin-1-yl)methyl]nicotinate], the IC50 was found to be 0.012 µM.
Then `CC(C)OC(=O)c1cc(C#N)c(N2CCC(C(=O)NS(=O)(=O)Cc3ccc(F)cc3Cl)CC2)nc1CN1CCCC1=O` [Example 49, Isopropyl 6-(4-{[(2-chloro-4-fluorobenzyl)sulfonyl]carbamoyl}piperidin-1-yl)-5-cyano-2-[(2-oxopyrrolidin-1-yl)methyl]nicotinate], with 0.066 µM; and `CC(C)OC(=O)c1cc(C#N)c(N2CCC(C(=O)NS(=O)(=O)Cc3ccc(C(F)(F)F)cc3)CC2)nc1CN1CCCC1=O` [Example 50, Isopropyl 5-cyano-2-[(2-oxopyrrolidin-1-yl)methyl]-6-[4-({[4-(trifluoromethyl)benzyl]sulfonyl}carbamoyl)piperidin-1-yl]nicotinate], with 0.02 µM.
